Data taken from patent US20220251124A1, “3,5-BIS(PHENYL)-1H-HETEROARYL DERIVATIVES AS MEDICAMENTS” (INSTITUTE OF BIOTECHNOLOGY CAS, V.V.I., priority 2019, published 2022).

Assays:
Format in all cases: cell-based
[1] = test system: leukemia cells; assay: alamarBlue viability, leukemia cells overall
Experimental: (§1) Compound 1 and a comparative compound deferasirox (DFX) were tested in their efficacy to kill/suppress proliferation of several leukemia cells. Briefly, 10.000 cells per well were seeded in a 96-well plate on one day and the next day the tested compounds were added and incubated with the cells for 48 hrs. Cellular viability was determined as the ability to reduce the probe alamarBlue™ Cell Viability Reagent.

[2] = test system: non-malignant fibroblasts (HFP1); assay: crystal violet assay, cellular viability, 48 hrs; conditions: Fibroblast
Experimental: [The source words this procedure for another cell line and reports this cell line under the same test.] (§2) Compound 1 and a comparative compound deferasirox (DFX) were tested in their efficacy to kill/suppress proliferation of malignant breast cancer MCF7 cells representing estrogen-dependent type of breast cancer. Briefly, 10.000 cells per well were seeded in a 96-well plate on one day and the next day the tested compounds were added and incubated with the cells for 48 hrs. The cells were then fixed with 4% paraformaldehyde, stained with 0.05% crystal violet, washed with PBS, and solubilized in 1% SDS. The absorbance of the plate at 595 nm was then measured, quantifying the number of viable cells.
(§3) Compounds 1, 2 and the comparative compound deferasirox were tested in their efficacy to suppress proliferation/kill several malignant cell lines of breast, pancreatic and ovarian origin (MCF7, MDA-MB-231, BxPC3 and OVCAR3). The procedure is identical to that in example 12.

[3] = test system: BxPC3; assay: crystal violet assay, cellular viability, 48 hrs; conditions: Homo sapiens, BXPC-3
Experimental: as §2, §3

[4] = test system: OVCAR3; assay: crystal violet assay, cellular viability, 48 hrs; conditions: Homo sapiens, OVCAR-3
Experimental: as §2, §3

[5] = test system: T47D; assay: crystal violet assay, cellular viability, 48 hrs; conditions: Homo sapiens, T47D (parental/control)
Experimental: [The source words this procedure for another cell line and reports this cell line under the same test.] as §2, §3

[6] = test system: BxPC3; assay: annexin V/PI staining, cell death induction, 48 hrs; conditions: 5 μM
Experimental: (§4) This effect seems to be based mainly on the cytostatic effect of compound 1. To define the ability to kill cells, cell death-inducing potency (cytotoxic efficacy) of DFX and compound 1 have been tested via annexin V/PI staining commonly used as a measure of apoptotic/necrotic cell death. Briefly, cells were seeded in 12-well plate at 100,000 per well, incubated with the selected compounds for 48 hours, then floating cells were spun, adherent cells trypsinized and spun as well followed by the staining with AnnexinV-FITC and PI probes. Cells were then washed with PBS and measured via Fluorescence Activated Sorter.

[7] = test system: non-malignant HFP1 cells; assay: as above; conditions: for dead cells (AnnexinV/PI): 48 hrs, HFP1
Experimental: as §4

[8] = test system: non malignant cells MRC5; assay: as above
Experimental: as §4

[9] = test system: OVCAR; assay: as above
Experimental: as §4

[10] = test system: MCF7; assay: as above
Experimental: as §4
Since compound 1 is an iron chelator, we have evaluated the effect of pre-loading compound 1 with iron at a 2:1 ratio and then applying it to the cells, followed by measurement of cell death using the Annexin V/PI staining as in example 4.

[11] = test system: UPF1H leukemia cell line; assay: AnnexinV/PI assay, cell death induction, 48 hrs
Experimental: as §4
(§5) This effect seems to be based mainly on the cytostatic effect of compound 1. To define the ability to kill cells, cell death-inducing potency (cytotoxic efficacy) of DFX and compound 1 have been tested via annexin V/PI staining commonly used as a measure of apoptotic/necrotic cell death (see example 15). […] Compound 1 killed cancer cells with effects higher by almost 3 orders of magnitude than those of deferasirox. Such results are unprecedented and very unexpected.

[12] = test system: UPF4D leukemia cell line; assay: AnnexinV/PI assay, cell death induction, 48 hrs
Experimental: as §4, §5

[13] = test system: UPF9T leukemia cell line; assay: AnnexinV/PI assay, cell death induction, 48 hrs
Experimental: as §4, §5

[14] = test system: UPF16A leukemia cell line; assay: AnnexinV/PI assay, cell death induction, 48 hrs
Experimental: as §4, §5

[15] = test system: UPF1H leukemia cell line; assay: alamarBlue Cell Viability Reagent, 48 hrs
Experimental: as §1

[16] = test system: UPF4D leukemia cell line; assay: alamarBlue Cell Viability Reagent, 48 hrs
Experimental: as §1

[17] = test system: UPF9T leukemia cell line; assay: alamarBlue Cell Viability Reagent, 48 hrs
Experimental: as §1

[18] = test system: UPF16A leukemia cell line; assay: alamarBlue Cell Viability Reagent, 48 hrs
Experimental: as §1

[19] = test system: tamoxifen resistant MCF7 (Tam5R); assay: crystal violet assay, tamoxifen resistant cells; conditions: MCF7 Tam5R grown in the presence of 5 μM tamoxifen
Experimental: as §2
(§6) To test whether compound 1 is active against resistant cancer cells, we used tamoxifen-resistant MCF7, T47D. The IC50 values were again measured with the crystal violet assay performed as in example 12. We have documented that there is a significant difference in the ability of compound 1 to induce cytostatic and cytotoxic effects between the parental cells sensitive to tamoxifen and the resistant ones that grow even in the presence of tamoxifen (Table 11), yet the IC50 values are still in the nM range, making this compound very efficient.

[20] = test system: tamoxifen resistant T47D (Tam5R); assay: crystal violet assay, tamoxifen resistant cells; conditions: Homo sapiens, T47D Tam5R grown in the presence of 5 μM tamoxifen
Experimental: as §2, §6

O=C(NCCCCCCCCCC[P+](c1ccccc1)(c1ccccc1)c1ccccc1)c1ccc(-n2nc(-c3ccccc3O)nc2-c2ccccc2O)cc1 [Compound 1, (10-(4-(3,5-bis(2-hydroxyphenyl)-1H-1,2,4-triazol-1-yl)benzamido)decyl) triphenylphosphonium Chloride]
IC50 ([1]; 48 h, read-out: IC50 (suppression of proliferation to 50%)): 20 to 200 nM | same effect at a concentration lower than deferasirox ([1]; IC50 versus deferasirox, leukemia cells): 40-4000 fold | efficacy against leukemia cell lines ([1]; as seen in previous tables): 20 to 200 nM | IC50 [2]: 532 nM | IC50 [3]: 150 nM | IC50 [4]: 154 nM | IC50 [5]: 31 nM | dead cells (AnnexinV/PI) [6]: 37.8 (16.1) % | dead cells (AnnexinV/PI) ([7]; 1 μM): 12.3 (0.9) % | dead cells (AnnexinV/PI) ([7]; 2 μM): 13.6 (1.4) % | dead cells (AnnexinV/PI) ([7]; 5 μM): 23.3 (1.1) % | concentrations at which toxic effect could be detected ([7]; non-malignant HFP1 cells): higher than 5 μM | dead cells (AnnexinV/PI) ([8]; 1 μM): 14.5 (1.7) % | dead cells (AnnexinV/PI) ([8]; 2 μM): 19.6 (1.9) % | dead cells (AnnexinV/PI) ([8]; 5 μM): 15.0 (2.0) % | dead cells (AnnexinV/PI) ([9]; 1 μM): 31.6 (10.3) % | dead cells (AnnexinV/PI) ([9]; 2 μM): 39.7 (9.8) % | dead cells (AnnexinV/PI) ([9]; 5 μM): 52.2 (17.5) % | dead cells (AnnexinV/PI) ([10]; 5 μM, +Fe^+3 (pre-loaded with iron at a 2:1 ratio)): 24.3 (1.1) % | dead cells (AnnexinV/PI) ([10]; 5 μM, alone): 38.5 (8.8) % | dead cells (AnnexinV/PI) ([10]; 10 μM, +Fe^+3 (pre-loaded with iron at a 2:1 ratio)): 25.7 (2.5) % | dead cells (AnnexinV/PI) ([10]; 10 μM, alone): 46.6 (7.8) % | dead cells (AnnexinV/PI) ([11]; 0.1 μM): 85.3 (10.9) % | dead cells (AnnexinV/PI) ([11]; 1 μM): 98.3 (0.6) % | dead cells (AnnexinV/PI) ([12]; 0.1 μM): 87.3 (13.4) % | dead cells (AnnexinV/PI) ([12]; 1 μM): 96.7 (3.9) % | dead cells (AnnexinV/PI) ([13]; 0.1 μM): 88.2 (4.8) % | dead cells (AnnexinV/PI) ([13]; 1 μM): 99.0 (0.6) % | dead cells (AnnexinV/PI) ([14]; 0.1 μM): 45.4 (16.2) % | dead cells (AnnexinV/PI) ([14]; 1 μM): 71.8 (20.2) % | viability at 0.03 µM ([15]; 0.030 μM, 48 hrs, read-out: viable cells compared to non-treated controls): 94.1% | viability at 0.1 µM ([15]; 0.100 μM, 48 hrs, read-out: viable cells compared to non-treated controls): 81.9% | viability at 0.3 µM ([15]; 0.300 μM, 48 hrs, read-out: viable cells compared to non-treated controls): 31.1% | viability at 3 µM ([15]; 3 μM, 48 hrs, read-out: viable cells compared to non-treated controls): 5.8% | viability at 10 µM ([15]; 10 μM, 48 hrs, read-out: viable cells compared to non-treated controls): 0.04% | IC50 ([15]; 48 h): 230 nM | viability at 0.03 µM ([16]; 0.030 μM, 48 hrs, UPF4D, read-out: viable cells compared to non-treated controls): 90.1% | viability at 0.1 µM ([16]; 0.100 μM, 48 hrs, UPF4D, read-out: viable cells compared to non-treated controls): 49.8% | viability at 0.3 µM ([16]; 0.300 μM, 48 hrs, UPF4D, read-out: viable cells compared to non-treated controls): 0.56% | viability at 3 µM ([16]; 3 μM, 48 hrs, UPF4D, read-out: viable cells compared to non-treated controls): 0.74% | viability at 10 µM ([16]; 10 μM, 48 hrs, UPF4D, read-out: viable cells compared to non-treated controls): 0.1% | IC50 ([16]; 48 h): 90 nM | viability at 0.03 µM ([17]; 0.030 μM, 48 hrs, UPF9T, read-out: viable cells compared to non-treated controls): 44.8% | viability at 0.1 µM ([17]; 0.100 μM, 48 hrs, UPF9T, read-out: viable cells compared to non-treated controls): 10.5% | viability at 0.3 µM ([17]; 0.300 μM, 48 hrs, UPF9T, read-out: viable cells compared to non-treated controls): 2% | viability at 3 µM ([17]; 3 μM, 48 hrs, UPF9T, read-out: viable cells compared to non-treated controls): 6.7% | viability at 10 µM ([17]; 10 μM, 48 hrs, UPF9T, read-out: viable cells compared to non-treated controls): 6.9% | IC50 ([17]; 48 h): 20 nM | viability at 0.03 µM ([18]; 0.030 μM, 48 hrs, UPF16A, read-out: viable cells compared to non-treated controls): 75.7% | viability at 0.1 µM ([18]; 0.100 μM, 48 hrs, UPF16A, read-out: viable cells compared to non-treated controls): 50.2% | viability at 0.3 µM ([18]; 0.300 μM, 48 hrs, UPF16A, read-out: viable cells compared to non-treated controls): 30.8% | viability at 3 µM ([18]; 3 μM, 48 hrs, UPF16A, read-out: viable cells compared to non-treated controls): 4% | viability at 10 µM ([18]; 10 μM, 48 hrs, UPF16A, read-out: viable cells compared to non-treated controls): 0.31% | IC50 ([18]; 48 h): 110 nM | IC50 [19]: 38 nM | IC50 [20]: 112 nM
